We go through 28 compounds from ChEMBL document CHEMBL3046383, “Enantioselective Herbicidal Activity of Chiral α-Methylbenzylphenylureas against Cyperaceae and Echinochloa Paddy Weeds” (Biosci Biotechnol Biochem, 1998).

Data set [1] has as its system Cyperus serotinus. Description: Herbicidal activity against Cyperus serotinus assessed as phytotoxic activity ratings (0- no effect to 5-complete killing rating scale) at 100 g/a measured after 3 weeks post compound treatment under green house conditions. The class given is functional.
Data set [2] relates to Schoenoplectiella juncoides. The data set is described as follows: Herbicidal activity against Schoenoplectiella juncoides var. Hotarui Ohwi assessed as phytotoxic activity ratings (0- no effect to 5-complete killing rating scale) at 50 g/a measured after 3 weeks post compound treatment under green house conditions. Type of data set: functional.
Data set [3] relates to Cyperus difformis. The data set is described as follows: Herbicidal activity against Cyperus difformis assessed as phytotoxic activity ratings (0- no effect to 5-complete killing rating scale) at 25 g/a measured after 3 weeks post compound treatment under green house conditions. The class given is functional.
In data set [4] the test system is Echinochloa oryzicola. The data set is described as follows: Herbicidal activity against Echinochloa oryzicola assessed as phytotoxic activity ratings (0- no effect to 5-complete killing rating scale) at 100 g/a measured after 3 weeks post compound treatment under green house conditions. The class given is functional.
Data set [5] concerns Oryza sativa. The data set is described as follows: Phytotoxicity against directly seeded Oryza sativa (rice) seedlings assessed as phytotoxic activity ratings (0- no effect to 5-complete killing rating scale) at 100 g/a measured after 3 weeks post compound treatment under green house conditions. Type of data set: organism-based. The settings on record: in vivo, 504 h.
For data set [6], the system named is Oryza sativa. The data set is described as follows: Phytotoxicity against transplanted Oryza sativa (rice) seedlings assessed as phytotoxic activity ratings (0- no effect to 5-complete killing rating scale) at 100 g/a measured after 3 weeks post compound treatment under green house conditions. Type of data set: organism-based. The settings on record: in vivo, 504 h.

Data set [7] concerns Schoenoplectiella juncoides. Description: Herbicidal activity against Schoenoplectiella juncoides var. Hotarui Ohwi assessed as phytotoxic activity ratings (0- no effect to 5-complete killing rating scale) at 100 g/a measured after 3 weeks post compound treatment under green house conditions. The class given is functional.
Data set [8] concerns Cyperus difformis. Description: Herbicidal activity against Cyperus difformis assessed as phytotoxic activity ratings (0- no effect to 5-complete killing rating scale) at 100 g/a measured after 3 weeks post compound treatment under green house conditions. Type of data set: functional.
The subject of data set [9] is Cyperus serotinus. Description: Herbicidal activity against Cyperus serotinus assessed as phytotoxic activity ratings (0- no effect to 5-complete killing rating scale) at 3.1 to 100 g/a measured after 3 weeks post compound treatment under green house conditions. The class given is functional.
In data set [10] the test system is Echinochloa oryzicola. Description: Herbicidal activity against Echinochloa oryzicola assessed as phytotoxic activity ratings (0- no effect to 5-complete killing rating scale) at 25 g/a measured after 3 weeks post compound treatment under green house conditions. Type of data set: functional.
In data set [11] the test system is Cyperus serotinus. The data set is described as follows: Herbicidal activity against Cyperus serotinus assessed as phytotoxic activity ratings (0- no effect to 5-complete killing rating scale) at 3.1 g/a measured after 3 weeks post compound treatment under green house conditions. Type of data set: functional.
In data set [12] the test system is Echinochloa oryzicola. Description: Herbicidal activity against Echinochloa oryzicola assessed as phytotoxic activity ratings (0- no effect to 5-complete killing rating scale) at 6.2 g/a measured after 3 weeks post compound treatment under green house conditions. Type of data set: functional.

The structures appear in SMILES notation. Activity calls are given as the source filed them. How the calls were made is not given here.

Regarding `Cc1ccc(NC(=O)N[C@H](C)c2ccccc2)cc1`, the Activity is listed as 40% in [1]; 80% in [2]; 80% in data set [3]; 10% in data set [4]; 0% in [5]; 0% in data set [6].

Consider `C[C@H](NC(=O)Nc1c(F)cccc1F)c1ccccc1`, for which the Activity in data set [1], in data set [7], in data set [8], in data set [4], in data set [5] and in data set [6] was 0% in each case.

In the case of `Cc1cccc(NC(=O)N[C@@H](C)c2ccccc2)c1`, the Activity in data set [1] was 0%; in data set [7] it was 0%; in data set [8], 0%; in data set [4] it was 10%; in data set [5] it was 10%; in data set [6] it was 0%.

`C[C@H](NC(=O)Nc1ccccc1C(C)(C)C)c1ccccc1`: the Activity stood at 0% in [1]; 10% in [7]; 40% in data set [8]; 0% in data set [4]; 0% in data set [5]; 0% in [6].

As to `CCc1ccc(NC(=O)N[C@H](C)c2ccccc2)cc1`, the Activity in data set [1] is reported as 40%; in data set [7], 40%; in data set [8], 40%; in data set [4], 0%; in [5], 0%; in data set [6], 0%.

For `C[C@H](NC(=O)Nc1cc(F)ccc1F)c1ccccc1`, the result in data set [9] was inactive. In addition, the Activity in [7] is 0%; in [8], 0%; in [10], 80%; in [5], 10%; in [6], 0%.

Take `CCc1ccccc1NC(=O)N[C@H](C)c1ccccc1`: the Activity was 80% in [11]; 10% in data set [7]; 80% in [3]; 0% in data set [4]; 0% in [5]; 0% in data set [6].

Turning to `COc1cccc(NC(=O)N[C@H](C)c2ccccc2)c1`, the Activity in data set [9] came to 80%; in [1], 10%; in data set [2], 80%; in data set [8], 40%; in [4], 10%; in data set [5], 10%. Further, the Activity in data set [6] is reported as 0%.

For the compound `CCc1ccc(NC(=O)N[C@@H](C)c2ccccc2)cc1`, the Activity in data set [1], in [7], in data set [8], in data set [4], in data set [5] and in [6] was 0% throughout.

Take `C[C@H](NC(=O)Nc1ccccc1C(F)(F)F)c1ccccc1`: the Activity in data set [1] is given as 0%; in [7] it was 0%; in [8] it was 0%; in data set [4], 10%; in [5], 0%; in [6] it was 0%.

With `C[C@@H](NC(=O)Nc1cccc(C(F)(F)F)c1)c1ccccc1`, the Activity in data set [1] worked out at 0%; in [2] it was 80%; in data set [8] it was 40%; in data set [4], 10%; in data set [5], 10%; in [6], 0%.

For `Cc1cc(F)ccc1NC(=O)N[C@H](C)c1ccccc1`, the Activity in data set [1], in data set [7], in [8], in [4], in [5] and in [6] was 0% in each case.

With `CCCc1ccc(NC(=O)N[C@H](C)c2ccccc2)cc1`, the Activity is listed as 0% in [1]; 40% in data set [7]; 40% in [8]; 80% in data set [12]; 10% in data set [5]; 0% in data set [6].

Consider `CC(C)c1ccccc1NC(=O)N[C@@H](C)c1ccccc1`, for which the Activity in data set [1], in data set [7], in [8], in data set [4], in data set [5] and in data set [6] was 0% each time.

For `C[C@H](NC(=O)Nc1ccccc1F)c1ccccc1`, the Activity in [1] was 0%; in data set [7] it was 0%; in [8], 10%; in [12] it was 80%; in data set [5] it was 40%; in data set [6] it was 0%.

Take `Cc1ccc(NC(=O)N[C@@H](C)c2ccccc2)cc1`: the Activity in data set [1] is reported as 0%; in data set [7], 0%; in data set [8] it was 0%; in data set [4], 40%; in data set [5] it was 0%; in data set [6] it was 0%.

Regarding `Cc1cc(F)ccc1NC(=O)N[C@@H](C)c1ccccc1`, the Activity was found to be 40% in [1]; 40% in data set [7]; 10% in [8]; 0% in [4]; 0% in data set [5]; 0% in data set [6].

Turning to `C[C@H](NC(=O)Nc1ccccc1)c1ccccc1`, the Activity is given as 0% in data set [1]; 0% in [7]; 0% in [8]; 80% in [10]; 10% in [5]; 0% in [6].

For the compound `CC(C)c1ccc(NC(=O)N[C@@H](C)c2ccccc2)cc1`, the result in [9] was inactive. Also, the Activity in [1], in data set [7], in data set [8], in [4], in data set [5] and in data set [6] was 0% throughout.

As to `Cc1ccccc1NC(=O)N[C@@H](C)c1ccccc1`, the Activity in data set [1], in [7], in data set [8], in data set [4], in data set [5] and in data set [6] was 0% in each case.

In the case of `C[C@@H](NC(=O)Nc1ccccc1)c1ccccc1`, the Activity was found to be 80% in [1]; 10% in data set [7]; 40% in [8]; 40% in [4]; 0% in data set [5]; 0% in data set [6].

For `CCc1ccccc1NC(=O)N[C@@H](C)c1ccccc1`, the Activity in [1] came out at 0%; in [7], 10%; in [8], 40%; in data set [4], 0%; in data set [5], 0%; in data set [6], 0%.

With `C[C@H](NC(=O)Nc1cccc(C(F)(F)F)c1)c1ccccc1`, the Activity amounted to 0% in [1]; 0% in data set [7]; 10% in data set [8]; 10% in [4]; 0% in data set [5]; 0% in [6].

Take `CCc1cccc(NC(=O)N[C@@H](C)c2ccccc2)c1`: the Activity in [1] is 0%; in data set [7], 40%; in data set [8], 40%; in [4] it was 0%; in data set [5], 0%; in [6], 0%.

Take `C[C@H](NC(=O)Nc1cccc(F)c1F)c1ccccc1`: the outcome in [9] was inactive. For the same compound, the Activity in data set [7] was 0%; in data set [8] it was 0%; in data set [10], 80%; in data set [5] it was 10%; in [6] it was 0%.

For `COc1cccc(NC(=O)N[C@@H](C)c2ccccc2)c1`, the Activity in data set [1], in data set [7], in data set [8], in data set [4], in data set [5] and in data set [6] was 0% throughout.

Turning to `Cc1cccc(NC(=O)N[C@H](C)c2ccccc2)c1`, the Activity in data set [1] is recorded as 80%; in data set [7] it was 80%; in [8], 80%; in data set [4] it was 40%; in data set [5], 10%; in data set [6], 0%.

On to `C[C@@H](NC(=O)Nc1ccccc1F)c1ccccc1`, for which the Activity was 40% in data set [1]; 10% in [7]; 40% in data set [8]; 10% in [4]; 10% in data set [5]; 0% in data set [6].
